Results on 22 compounds are retold here after ChEMBL document CHEMBL5030537 (J Med Chem, 2021).

Converted amounts (≈) assume the structure as drawn.

Data set [1] deals with T1, Tyrosine-protein kinase BTK (Homo sapiens, UniProt Q06187). Description: Inhibition of Btk (unknown origin) assessed as inhibition of phosphorylation of FAM-labelled peptide substrate.
The target of data set [2] is T1, Tyrosine-protein kinase BTK. Description: Inhibition of human Btk in human Raji cells assessed as PhosY223 measured after 30 mins by cellular HTRF assay. The format is cell-based.
Data set [3] is described as follows: Plasma protein binding in human measured by rapid equilibrium dialysis method. The following applies: read-out: PPB (converted). The format is ADME, cell-free. On the technique in general: In equilibrium dialysis free small molecules cross a membrane that holds back macromolecules.
Data set [4] has as its system Salmonella typhimurium. As to the kind of experiment: Genotoxicity in Salmonella typhimurium TA1537 by Ames test. It is filed as toxicity, organism-based. To be noted: salmonella enterica subsp. enterica serovar typhimurium. For orientation: The Ames test uses bacterial strains that need an amino acid and regain growth without it when mutated back.
Data set [5] in a line: Half life in Beagle dog. To be noted: in vivo. The format is ADME, Canis lupus familiaris.
A short description of data set [6]: Toxicity in human peripheral blood lymphocytes in presence of S9 fraction by micronucleus test. It is filed as subcellular, Lymphocyte.
A short description of data set [7]: Thermodynamic solubility of the compound at pH 6.8 in GCDC. To be noted: read-out: Therm_solubility. The format is physicochemical.
Data set [8] can be described thus: Half life in Sprague-Dawley rat. It is filed as ADME. To be noted: in vivo.
For data set [9], the system named is Salmonella typhimurium. As to the kind of experiment: Genotoxicity in Salmonella typhimurium TA98 by Ames test. The format is toxicity, organism-based. The following applies: salmonella enterica subsp. enterica serovar typhimurium.
Data set [10] is described as follows: Toxicity in dog assessed as adverse effect. To be noted: in vivo. Details: species or system Canis lupus familiaris.
Data set [11] deals with Salmonella typhimurium. As to the kind of experiment: Genotoxicity in Salmonella typhimurium WP2 uvrA in presence of S9 fraction by Ames test. It is filed as toxicity, organism-based. To be noted: salmonella enterica subsp. enterica serovar typhimurium.
The test system of data set [12] is Rattus norvegicus. Description: Antiarthritic activity against collagen-induced arthritis Lewis rat model assessed as change in paw volume at 0.1 mg/kg, po once daily for 22 days. It is filed as functional. To be noted: time 22 day.
Data set [13] can be described thus: Metabolic stability in monkey liver hepatocytes assessed as extraction ratio. The following applies: rhesus monkey.
Data set [14] in a line: GSH reactivity in pH 7.4 PBS buffer assessed as intrinsic reactivity by measuring percent remaining measured after 2 hrs. The following applies: read-out: Stability. The format is physicochemical.
Data set [15] in a line: Metabolic stability in Beagle dog liver hepatocytes assessed as extraction ratio.
Data set [16] in a line: Metabolic stability in Sprague-Dawley rat liver hepatocytes assessed as extraction ratio.
The nature of data set [17]: Toxicity in human peripheral blood lymphocytes in absence of S9 fraction by micronucleus test. The following applies: lymphocyte. It is filed as cell-based.
Data set [18] is described as follows: Thermodynamic solubility of the compound at pH 6.8 in JP2 fluid. The format is physicochemical. To be noted: read-out: Therm_solubility.
Data set [19] is described as follows: Stability in PBS buffer measured after 2 hrs. The format is physicochemical.
A short description of data set [20]: Plasma protein binding in Sprague-Dawley rat measured by rapid equilibrium dialysis method. The format is ADME, cell-free. The following applies: read-out: PPB (converted).
Data set [21] is described as follows: Toxicity in rat assessed as adverse effect. To be noted: in vivo.
Data set [22] is described as follows: Metabolic stability in mouse liver hepatocytes assessed as extraction ratio.
A short description of data set [23]: AUC in collagen-induced arthritis rat model at 3 mg/kg, po […] after 22 days. The format is ADME, organism-based. Details: dose 3 mg/kg, time 22 day. The following applies: in vivo, 528 h.
Data set [24] concerns Rattus norvegicus. Description: Antiarthritic activity against collagen-induced arthritis Lewis rat model assessed as inhibition of paw swelling treated po once daily for 21 days. The format is functional, organism-based. The following applies: dose 0.3-3 mg/kg, time 21.0 day.
Data set [25] in a line: In vivo stability in Sprague-Dawley rat liver assessed as extraction ratio at 70 ml/kg.
Data set [26] can be described thus: Oral bioavailability in Beagle dog. It is filed as ADME, organism-based, Canis lupus familiaris. The following applies: in vivo.
The subject of data set [27] is MDR1. As to the kind of experiment: Efflux ratio of apparent permeability in LLC-PK1-MDR1 cells. To be noted: pig.
The test system of data set [28] is Rattus norvegicus. Description: Antiarthritic activity against collagen-induced arthritis po dosed Lewis rat model assessed as inhibition of paw swelling measured after 22 days. The format is organism-based. The following applies: 528 h, time 22 day.
Data set [29] concerns Salmonella typhimurium. Description: Genotoxicity in Salmonella typhimurium TA1535 by Ames test. It is filed as toxicity, organism-based. To be noted: salmonella enterica subsp. enterica serovar typhimurium.
Data set [30] concerns the target Tyrosine-protein kinase Lck (Homo sapiens, UniProt P06239). As to the kind of experiment: Inhibition of Lck (unknown origin).
The subject of data set [31] is Salmonella typhimurium. Description: Genotoxicity in Salmonella typhimurium […] by Ames test. It is filed as toxicity, organism-based. The following applies: salmonella enterica subsp. enterica serovar typhimurium.
Data set [32] can be described thus: Clearance in Beagle dog at 1 mg/kg, iv. The format is ADME, organism-based, Canis lupus familiaris. To be noted: in vivo.
The subject of data set [33] is Rattus norvegicus. As to the kind of experiment: Antiarthritic activity against collagen-induced arthritis Lewis rat model assessed as change in paw volume at 0.3 mg/kg, po once daily for 22 days. It is filed as functional. The following applies: time 22 day.
In data set [34] the target is Proto-oncogene tyrosine-protein kinase Src (Homo sapiens, UniProt P12931). As to the kind of experiment: Inhibition of Src (unknown origin).
Chain of Proto-oncogene tyrosine-protein kinase Src (P12931 2-536 limits assumed): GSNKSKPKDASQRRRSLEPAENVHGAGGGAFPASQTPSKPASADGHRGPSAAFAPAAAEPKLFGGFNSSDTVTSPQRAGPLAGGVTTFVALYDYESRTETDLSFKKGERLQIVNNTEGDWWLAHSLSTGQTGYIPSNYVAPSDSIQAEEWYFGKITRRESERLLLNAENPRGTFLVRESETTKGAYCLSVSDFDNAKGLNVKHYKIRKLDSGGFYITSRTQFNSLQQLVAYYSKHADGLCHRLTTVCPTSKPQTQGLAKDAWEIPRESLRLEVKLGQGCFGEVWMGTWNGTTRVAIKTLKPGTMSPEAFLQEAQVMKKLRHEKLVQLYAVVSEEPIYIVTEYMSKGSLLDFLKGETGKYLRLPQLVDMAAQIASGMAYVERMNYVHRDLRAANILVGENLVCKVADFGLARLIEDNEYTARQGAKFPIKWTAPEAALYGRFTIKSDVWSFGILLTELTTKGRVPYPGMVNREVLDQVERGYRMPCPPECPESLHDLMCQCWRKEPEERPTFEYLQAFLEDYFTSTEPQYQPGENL
Data set [35] has as its system MDR1. Description: Apparent permeability from apical to basolateral side in LLC-PK1-MDR1 cells. The format is ADME, cell-based, Sus scrofa. To be noted: pig.
Data set [36] is described as follows: Metabolic stability in human liver hepatocytes assessed as extraction ratio. To be noted: mouse.
For data set [37], the system named is Rattus norvegicus. Description: Antiarthritic activity against collagen-induced arthritis Lewis rat model assessed as change in paw volume at 1 mg/kg, po once daily for 22 days. The format is functional. The following applies: time 22 day.
A short description of data set [38]: Thermodynamic solubility of the compound at pH 1.2 in JP1 fluid. The following applies: read-out: Therm_solubility. It is filed as physicochemical.
Data set [39] can be described thus: In vivo inhibition of pBTK in collagen-induced arthritis rat model at 3-30 mg/kg after 12 hrs. It is filed as functional.
Data set [40] deals with PDE10A2 (Homo sapiens, UniProt Q9Y233). As to the kind of experiment: Inhibition of PDE10A2 (unknown origin) assessed as remaining activity.
Chain of PDE10A2 (Q9Y233 whole entry): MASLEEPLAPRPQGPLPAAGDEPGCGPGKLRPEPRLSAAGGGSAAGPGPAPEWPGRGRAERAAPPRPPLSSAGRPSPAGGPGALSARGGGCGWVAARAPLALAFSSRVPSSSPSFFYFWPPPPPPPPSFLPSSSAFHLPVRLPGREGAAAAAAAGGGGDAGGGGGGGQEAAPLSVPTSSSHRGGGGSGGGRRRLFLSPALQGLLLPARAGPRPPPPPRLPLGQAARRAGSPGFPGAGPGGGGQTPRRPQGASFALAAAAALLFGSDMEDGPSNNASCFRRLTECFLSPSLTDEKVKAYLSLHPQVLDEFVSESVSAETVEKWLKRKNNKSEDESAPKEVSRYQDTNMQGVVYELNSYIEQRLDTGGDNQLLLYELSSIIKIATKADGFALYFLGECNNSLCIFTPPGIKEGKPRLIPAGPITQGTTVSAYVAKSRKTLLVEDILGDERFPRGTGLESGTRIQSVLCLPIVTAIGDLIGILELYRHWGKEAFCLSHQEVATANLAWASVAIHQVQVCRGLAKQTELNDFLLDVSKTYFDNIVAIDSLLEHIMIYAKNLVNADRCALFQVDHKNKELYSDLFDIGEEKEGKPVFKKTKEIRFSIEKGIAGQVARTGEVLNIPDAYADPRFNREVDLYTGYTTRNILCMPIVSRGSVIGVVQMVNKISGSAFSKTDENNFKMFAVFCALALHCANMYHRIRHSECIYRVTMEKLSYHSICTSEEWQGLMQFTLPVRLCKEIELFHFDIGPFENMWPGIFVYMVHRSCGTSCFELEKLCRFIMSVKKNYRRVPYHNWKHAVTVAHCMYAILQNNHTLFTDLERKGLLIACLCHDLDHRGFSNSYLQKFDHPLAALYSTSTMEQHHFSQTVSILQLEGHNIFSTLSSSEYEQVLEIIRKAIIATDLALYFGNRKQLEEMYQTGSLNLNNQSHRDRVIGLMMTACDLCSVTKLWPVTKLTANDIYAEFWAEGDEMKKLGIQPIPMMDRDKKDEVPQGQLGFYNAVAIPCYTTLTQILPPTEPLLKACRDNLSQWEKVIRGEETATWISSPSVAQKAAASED
Data set [41] has as its system Salmonella typhimurium. As to the kind of experiment: Genotoxicity in Salmonella typhimurium WP2 uvrA in absence of S9 fraction by Ames test. The format is toxicity, organism-based. The following applies: salmonella enterica subsp. enterica serovar typhimurium.
Data set [42] has as its system Rattus norvegicus. As to the kind of experiment: Antiarthritic activity against collagen-induced arthritis Lewis rat model assessed as change in paw volume at 3 mg/kg, po once daily for 22 days. The following applies: time 22 day. It is filed as functional.
Data set [43] has as its target PDE5 (Homo sapiens, UniProt O76074). Description: Inhibition of PDE5 (unknown origin) assessed as remaining activity.
For data set [44], the target named is hERG (KCNH2) (Homo sapiens, UniProt Q12809). Description: Inhibition of hERG at 13 uM. On the technique in general: The hERG channel carries a current that helps repolarise heart muscle cells.
Chain of hERG (KCNH2) (Q12809 whole entry): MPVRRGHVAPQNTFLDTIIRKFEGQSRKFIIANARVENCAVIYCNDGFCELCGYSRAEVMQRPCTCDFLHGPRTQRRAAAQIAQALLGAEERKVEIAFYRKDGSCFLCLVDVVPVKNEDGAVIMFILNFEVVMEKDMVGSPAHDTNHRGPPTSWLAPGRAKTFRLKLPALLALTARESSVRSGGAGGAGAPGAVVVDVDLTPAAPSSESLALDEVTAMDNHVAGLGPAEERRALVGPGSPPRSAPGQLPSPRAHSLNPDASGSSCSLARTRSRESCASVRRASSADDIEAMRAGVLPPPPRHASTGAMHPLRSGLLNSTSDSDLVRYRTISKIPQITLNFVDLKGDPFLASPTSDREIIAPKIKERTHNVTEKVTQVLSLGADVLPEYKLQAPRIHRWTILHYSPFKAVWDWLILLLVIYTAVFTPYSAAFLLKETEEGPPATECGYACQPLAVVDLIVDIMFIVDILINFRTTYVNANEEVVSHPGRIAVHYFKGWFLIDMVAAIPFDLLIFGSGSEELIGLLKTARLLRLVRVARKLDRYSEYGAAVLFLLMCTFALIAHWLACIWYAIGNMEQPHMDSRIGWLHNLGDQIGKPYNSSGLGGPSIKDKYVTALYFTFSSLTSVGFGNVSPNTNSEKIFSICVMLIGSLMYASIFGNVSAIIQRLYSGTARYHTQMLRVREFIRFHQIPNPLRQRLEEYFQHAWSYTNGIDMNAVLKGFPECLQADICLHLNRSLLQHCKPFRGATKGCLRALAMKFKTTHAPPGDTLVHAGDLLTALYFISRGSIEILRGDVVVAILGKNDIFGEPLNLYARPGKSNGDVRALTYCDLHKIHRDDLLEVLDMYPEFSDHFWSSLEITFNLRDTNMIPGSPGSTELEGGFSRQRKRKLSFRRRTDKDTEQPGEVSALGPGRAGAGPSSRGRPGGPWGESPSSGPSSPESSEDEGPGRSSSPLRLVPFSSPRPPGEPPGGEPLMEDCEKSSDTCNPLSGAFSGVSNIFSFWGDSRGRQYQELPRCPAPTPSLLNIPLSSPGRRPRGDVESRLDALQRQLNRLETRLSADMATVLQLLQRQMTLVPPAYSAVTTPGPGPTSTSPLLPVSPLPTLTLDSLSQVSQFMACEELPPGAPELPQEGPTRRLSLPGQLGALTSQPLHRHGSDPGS
For data set [45], the system named is PDE3. As to the kind of experiment: Inhibition of PDE3 (unknown origin) assessed as remaining activity. To be noted: human.
A short description of data set [46]: In vivo stability in Beagle dog liver assessed as extraction ratio at 35 ml/kg.
Data set [47] is described as follows: Oral bioavailability in Sprague-Dawley rat. The format is ADME, organism-based. The following applies: in vivo.

T1 sequence (Q06187 whole entry): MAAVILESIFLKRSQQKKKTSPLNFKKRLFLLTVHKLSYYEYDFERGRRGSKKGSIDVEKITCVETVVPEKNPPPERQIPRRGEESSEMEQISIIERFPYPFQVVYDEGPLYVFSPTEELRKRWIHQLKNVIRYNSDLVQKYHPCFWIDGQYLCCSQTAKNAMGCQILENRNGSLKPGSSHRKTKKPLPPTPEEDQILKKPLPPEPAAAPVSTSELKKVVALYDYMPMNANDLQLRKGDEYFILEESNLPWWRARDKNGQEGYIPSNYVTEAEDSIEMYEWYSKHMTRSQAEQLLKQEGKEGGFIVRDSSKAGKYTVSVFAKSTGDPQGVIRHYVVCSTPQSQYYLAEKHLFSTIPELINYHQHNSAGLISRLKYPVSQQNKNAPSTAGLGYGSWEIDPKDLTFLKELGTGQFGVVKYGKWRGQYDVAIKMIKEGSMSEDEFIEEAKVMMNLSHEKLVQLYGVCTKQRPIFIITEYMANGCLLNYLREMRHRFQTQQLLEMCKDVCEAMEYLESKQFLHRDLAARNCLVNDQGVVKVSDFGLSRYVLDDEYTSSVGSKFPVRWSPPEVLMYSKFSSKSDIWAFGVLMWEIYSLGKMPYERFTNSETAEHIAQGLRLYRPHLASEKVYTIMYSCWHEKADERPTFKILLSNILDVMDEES
Chain of Tyrosine-protein kinase Lck (P06239 whole entry): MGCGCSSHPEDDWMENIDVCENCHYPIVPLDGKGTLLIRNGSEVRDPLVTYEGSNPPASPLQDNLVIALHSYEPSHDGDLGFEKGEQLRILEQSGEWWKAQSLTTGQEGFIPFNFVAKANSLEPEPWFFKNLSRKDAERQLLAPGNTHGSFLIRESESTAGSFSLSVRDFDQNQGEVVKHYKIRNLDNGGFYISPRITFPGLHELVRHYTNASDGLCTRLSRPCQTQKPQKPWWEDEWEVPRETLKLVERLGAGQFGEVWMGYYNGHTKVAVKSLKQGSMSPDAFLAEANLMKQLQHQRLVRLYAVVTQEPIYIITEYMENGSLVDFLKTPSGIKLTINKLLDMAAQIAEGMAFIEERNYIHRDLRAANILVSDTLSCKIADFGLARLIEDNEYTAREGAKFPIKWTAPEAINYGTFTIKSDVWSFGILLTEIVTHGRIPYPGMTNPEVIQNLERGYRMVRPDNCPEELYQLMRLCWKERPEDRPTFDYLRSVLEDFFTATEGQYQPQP

`NC(=O)c1nnc2ccccc2c1N`: the IC50 (in general, the concentration that inhibits the measured activity by half) in data set [1] was 3160 nM.
As for `CC(C)Nc1nc(-c2n[nH]c(=O)[nH]2)cc2ccccc12`, in data set [2], the EC50 (as a rule, the concentration giving half of the maximal effect) is 158 nM. Further, the IC50 in data set [1] is 20 nM.
On the same counts, the results for `CC(C)Oc1nc(-c2n[nH]c(=O)[nH]2)cc2ccccc12` are 100 nM and 10 nM.
On to `CCOc1nc(-c2n[nH]c(=O)[nH]2)cc2ccccc12`, for which the IC50 in data set [1] is 50.1 nM.
Same read-out and setting: under `COc1nc2ccccc2cc1-c1n[nH]c(=O)[nH]1` stands 3160 nM.
`Cc1cc(OC(C)C)nc(-c2n[nH]c(=O)[nH]2)c1`: the IC50 in data set [1] is 251 nM.
On the same count and under the same terms, under `O=c1[nH]nc(-c2ccccn2)[nH]1` stands 316000 nM.
With `CCNc1nc(-c2n[nH]c(=O)[nH]2)cc2ccccc12`, the EC50 in [2] was 794 nM. For the same compound, in data set [1], the IC50 is 100 nM.
Take `O=c1[nH]nc(-c2nc3ccccc3[nH]2)[nH]1`: in [1], the IC50 was 10000 nM.
Take `CCOc1ncccc1-c1n[nH]c(=O)[nH]1`: the IC50 in data set [1] is above 100000 nM.
Same read-out and setting: under `CCOc1cccc(-c2n[nH]c(=O)[nH]2)n1` stands 6310 nM; under `COc1ncccc1-c1n[nH]c(=O)[nH]1`, 100000 nM.
On to `CCCOc1nc(-c2n[nH]c(=O)[nH]2)cc2ccccc12`, for which the EC50 in data set [2] is 398 nM. Besides, the IC50 in [1] is 25.1 nM.
`CC(=O)N1CC[C@H](Oc2nc(-c3n[nH]c(=O)[nH]3)cc3ccccc23)C1`: the IC50 in data set [1] was 31.6 nM.
Take `O=c1[nH]nc(-c2cccnc2)[nH]1`: the IC50 in data set [1] is 126000 nM.
`CC(C)COc1cccc(-c2n[nH]c(=O)[nH]2)n1`: the IC50 in data set [1] is 1580 nM.
On the same count and under the same terms, under `O=c1[nH]nc(-c2cc3ccccc3cn2)[nH]1` stands 5010 nM.
As for `C=CC(=O)N1CC[C@@H](Oc2nc(-c3n[nH]c(=O)[nH]3)cc3ccccc23)C1`, the EC50 in [2] is 501 nM. Further, in [1], the concentration for half-maximal inhibition (IC50) is 31.6 nM.
Regarding `COc1cccc(-c2n[nH]c(=O)[nH]2)n1`, the IC50 in data set [1] was 31600 nM.
Still for that read-out and setting: under `COc1nc(-c2n[nH]c(=O)[nH]2)cc2ccccc12` stands 398 nM.
Same read-out and setting: under `Oc1n[nH]c(-c2ccccc2)n1` stands 501000 nM.
Regarding `C=CC(=O)N1CC[C@H](Oc2nc(-c3n[nH]c(=O)[nH]3)cc3ccccc23)C1` [TAK-020], the figures for the fraction unbound in data set [3] and in data set [20] were 0.113 and 0.098, respectively. Further, the Activity entry in [4] was “Non-Toxic”; in data set [6], “Non-Toxic”; in [9] it was “Non-Toxic”; in [10] it was “Non-Toxic”; in [11] it was “Non-Toxic”; in data set [12], 21%. Moreover, the Activity entry in [17] is on record as “Non-Toxic”; in [21] it was “Non-Toxic”; in data set [29], “Non-Toxic”; in data set [31], “Non-Toxic”; in data set [33], 75%; in data set [37], 173%. In addition, the Activity was 59% in data set [40]; “Non-Toxic” in data set [41]; 240% in data set [42]; 67% in data set [43]; 96% in data set [45]. Moreover, the half-life – broadly, the time in which the quantity being followed falls by half – is 3 h in [5] and 0.7 h in data set [8]. Besides, the solubility thermodynamic was 6.8 µg/mL (≈ 19.4 µM) in data set [7], below 1.1 µg/mL in data set [18] and below 0.1 µg/mL in [38]. The EC50 in data set [2] was 1.26 nM. For the same compound, the hepatic extraction ratio in data set [13] is 0.37; in data set [15] it was 0.48; in data set [16], 0.31; in data set [22], 0.62; in data set [25] it was above 0.9; in [36] it was 0.21. The hepatic extraction ratio in data set [46] was 0.81. In addition, the remaining at 2 h in [14] was 75%. Besides, in [19], the Stability entry is given as “Stable”. Further, the AUC (as a rule, concentration integrated over time) in data set [23] turned out to be 4.2 ng·h/mL. For the same compound, the inhibition (commonly the share of the control response that was lost under treatment) in [24] was “Dose-Dependent Effect”. In [26], the bioavailability – broadly, dose-corrected exposure relative to a reference, in per cent – amounted to 6.5%. The efflux ratio (in general, the permeability from basolateral to apical divided by that in the opposite direction, in the common usage) in data set [27] came to 10.8. Moreover, the ED50 (as a rule, the midpoint of the dose-response relation) in [28] came out at 0.17 mg/kg. Besides, the IC50 in [30] was 1000 nM; in data set [1] it was below 2 nM; in data set [34] it was 631 nM. Besides, the clearance (as a rule, the rate of elimination divided by the concentration) in [32] was found to be 28.5 mL/min/kg. Besides, the Papp A→B (usually how fast a substance crosses the layer from the apical side) in [35] worked out at 1.89 ×10⁻⁶ cm/s. Further, the inhibition in vivo (as a rule, the change of the read-out against control, counted positive when it falls) at 30 mg/kg in data set [39] was above 50%. The compound also gave an inhibition at 13 µM in data set [44] of 18%. Further, the F in [47] came to 6%.
